This is an account of results in US20040086901A1, “Database for analyzing gene function and method of analyzing gene function by dspa” (priority 2000, published 2004).

Non-standard residues stand in square brackets, D forms with d. Residues, ends and D or L forms follow the SMILES beside them. Nle = CCCC[C@H](N)C(=O)O

Common to all, as to format: cell-based, mouse
The subject of test [1] is NIH3T3 cells overexpressing Gluco-corticoid-R. Put plainly: MTT cell viability, Gluco-corticoid-R overexpressing cells vs parental line. The following applies: Gluco-corticoid-R high-expressing cells / parental cell line, 3 to 4 days. On the procedure: (§1) With regard to the function-known genes, the genes shown in the left column of Table 2 were used. With regard to the drugs, those shown in Table 1 were dissolved in DMSO to an extent of 100-fold of the maximum concentration for the search of the drugs and used. With regard to the cells, incubated NIH3T3 or ras-NIH3T3 cells were used.
(§2) Full-length cDNA of each function-known genes was incorporated into an expression vector (pRc-CMV, etc.) and transfected into NIH3T3 cells by a common method. Transformed cells were isolated using the resistance to G-418 as an index and the expression of the transfected gene in each cell was investigated by Western blotting method to select a highly expressing line.
(§3) Cell viabilities were measured according to the following procedures.
(§4) 1) From the 2nd to the 11th rows of a 96-well plate were filled with DMEM (50 μl). The 12th row was filled with 100 μl of DMEM.
(§5) 2) The 1st row was filled with 98 μl of DMEM.
(§6) 3) Drugs (2 μl each) were added into the 1st row.
(§7) 4) Continuous double-dilution was conducted from the 1st to the 9th rows. Fifty μl were taken out from the 9th row and discarded. The plate was preserved in a CO2 incubator.
(§8) 5) Cells (each high-expressing cells and the parental cell line) were detached from the medium using a trypsin solution, suspended in 10% CS-DMEM and transferred to a test tube and cell numbers (cell/ml) were counted.
(§9) 6) The cells were diluted to a concentration of 1×10^5 cells/ml, and 50 μl of the cell suspension were added to the 1st to the 11th rows of the plate followed by gently stirring.
(§10) 7) The plate was transferred to the CO2 incubator and incubated for 3 to 4 days.
(§11) 8) MTT (5 mg/ml in PBS) (10 μl) was added to the 1st to the 12th rows of the plate and incubated in the CO2 incubator at 37° C. for 4 hours.
(§12) 9) A reaction stop solution (0.04N HCl in isopropanol) (150 μl) was added followed by mixing well and being allowed to stand at room temperature for about 2 hours.
(§13) 10) Coloration of formazan which was a metabolite of the MTT dye was measured using a microplate reader. The measurement wavelength was 574 nm and the reference wavelength was 655 nm. The 10th and the 11th rows of the plate were 100% controls and the 12th row was a 0% control.
(§14) As an index for the sensitivity of highly gene-expressing cells and the parental cell line to various drugs, each of the IC40 values thereof was specified and ratios of the IC40 values were calculated. […] After that, logarithmic values of ratios of IC40 values were calculated from each gene.

The test system of test [2] is NIH3T3 cells overexpressing Cip-1. Put plainly: MTT cell viability, Cip-1 overexpressing cells vs parental line. Conditions: Cip-1 high-expressing cells / parental cell line, 3 to 4 days. As for the experimental part:
as §1, §2, §3, §4, §5, §6, §7, §8, §9, §10, §11, §12, §13, §14

In test [3] the test system is NIH3T3 cells overexpressing T.Tn. Nature of the test: MTT cell viability, T.Tn overexpressing cells vs parental line. The following applies: T.Tn high-expressing cells / parental cell line, 3 to 4 days. As for the experimental part:
as §1, §2, §3, §4, §5, §6, §7, §8, §9, §10, §11, §12, §13, §14

Test [4] relates to NIH3T3 cells overexpressing p53(wt). Nature of the test: MTT cell viability, p53(wt) overexpressing cells vs parental line. The following applies: p53(wt) high-expressing cells / parental cell line, 3 to 4 days. As for the experimental part:
as §1, §2, §3, §4, §5, §6, §7, §8, §9, §10, §11, §12, §13, §14

Test [5] concerns NIH3T3 cells overexpressing CaMKIIa-Active. Nature of the test: MTT cell viability, CaMKIIa-Active overexpressing cells vs parental line. The following applies: CaMKIIa-Active high-expressing cells / parental cell line, 3 to 4 days. As for the experimental part: as §1, §2, §3, §4, §5, §6, §7, §8, §9, §10, §11, §12, §13
(§15) As an index for the sensitivity of highly gene-expressing cells and the parental cell line to various drugs, each of the IC40 values thereof was specified and ratios of the IC40 values were calculated. FIG. 2 and FIG. 3 are the examples where ratios of IC40 values were calculated from a curve showing the dependency on the concentration of the chemical versus the viability. After that, logarithmic values of ratios of IC40 values were calculated from each gene.

Test [6] has as its system NIH3T3 cells overexpressing HSP9O. Put plainly: MTT cell viability, HSP9O overexpressing cells vs parental line. The following applies: HSP9O high-expressing cells / parental cell line, 3 to 4 days. As for the experimental part:
as §1, §2, §3, §4, §5, §6, §7, §8, §9, §10, §11, §12, §13, §15

Test [7] has as its system NIH3T3 cells overexpressing ERK-DN. Nature of the test: MTT cell viability, ERK-DN overexpressing cells vs parental line. The following applies: ERK-DN high-expressing cells / parental cell line, 3 to 4 days. On the procedure: as §1, §2, §3, §4, §5, §6, §7, §8, §9, §10, §11, §12, §13, §14

For `C=C1[C@@H](O)[C@@H]2O[C@]3(CC[C@H](/C=C/[C@@H](C)[C@@H]4CC(C)=C[C@@]5(O[C@H](C[C@@](C)(O)C(=O)O)CC[C@H]5O)O4)O3)CC[C@H]2O[C@@H]1[C@@H](O)C[C@H](C)[C@H]1O[C@@]2(CCCCO2)CC[C@H]1C` [OA, okadaic acid], the “logarithmic value of ratio of IC40 values” in test [1] is 0.06; in test [2], −0.15; in test [3], −0.16; in test [4] it was −0.05; in test [5], 0.14; in test [6], 0.07. For the same molecule, the “logarithmic value of ratio of IC40 values” in test [7] is listed as 0.00.
For `CNc1ccc2oc(C[C@H]3O[C@@]4(CC[C@H]3C)O[C@H]([C@H](C)C(=O)c3ccc[nH]3)[C@H](C)C[C@H]4C)nc2c1C(=O)O` [A23187], the “logarithmic value of ratio of IC40 values” in test [1] is on record as 0.28; in test [2] it was 0.04; in test [3], −0.22; in test [4], 0.30; in test [5] it was 0.18; in test [6], 0.28. Besides, the “logarithmic value of ratio of IC40 values” in test [7] was 0.00.
In the case of `CCCC[C@@H](C)/C=C(C)/C=C(\C)C(=O)NC1=C[C@@](O)(/C=C/C=C/C=C/C(=O)NC2=C(O)CCC2=O)[C@@H]2O[C@@H]2C1=O` [Manumycin, manumycin], the “logarithmic value of ratio of IC40 values” was 0.09 in test [1]; 0.12 in test [2]; 0.28 in test [3]; 0.12 in test [4]; 0.03 in test [5]; −0.13 in test [6]. Further, the “logarithmic value of ratio of IC40 values” in test [7] is given as −0.05.
For the molecule `CO[C@H]1[C@@H](OC)C[C@H](C)[C@@H](OC)C2=CC(=O)C=C(NC(=O)/C(C)=C/C=C\[C@H](OC)[C@@H](OC(N)=O)/C(C)=C/[C@@H]1C)C2=O` [HMA, herbimycin A], the “logarithmic value of ratio of IC40 values” is recorded as −0.11 in test [1]; −0.30 in test [2]; 0.00 in test [3]; −0.22 in test [4]; 0.51 in test [5]; 0.40 in test [6]. Moreover, in test [7], the “logarithmic value of ratio of IC40 values” is listed as 0.00.
In the case of sodium vanadate, the “logarithmic value of ratio of IC40 values” is 0.03 in test [1]; 0.00 in test [2]; 0.46 in test [3]; 0.00 in test [4]; 0.01 in test [5]; 0.02 in test [6]. Moreover, in test [7], the “logarithmic value of ratio of IC40 values” was found to be 0.00.
In the case of `CC(=O)OCOC(=O)CN(CC(=O)OCOC(C)=O)c1ccccc1OCCOc1ccccc1N(CC(=O)OCOC(C)=O)CC(=O)OCOC(C)=O` [BAPTA-AM], the “logarithmic value of ratio of IC40 values” in test [1] is reported as 0.10; in test [2] it was 0.00; in test [3] it was 0.11; in test [4], 0.00; in test [5] it was 0.18; in test [6], 0.60. The “logarithmic value of ratio of IC40 values” in test [7] stood at 0.12.
For the molecule ICE inhibitor-III [ICEin-3], the “logarithmic value of ratio of IC40 values” in test [1] is 0.00; in test [2] it was 0.08; in test [3], 0.30; in test [4] it was 0.23; in test [5], 0.22; in test [6], 0.22. Besides, the “logarithmic value of ratio of IC40 values” in test [7] is recorded as 0.00.
Turning to `CCCC[C@@H](C=O)NC(=O)[C@H](CC(C)C)NC(=O)[C@H](CC(C)C)NC(C)=O` [ALLN] (Ac-Leu-Leu-[Nle]-aldehyde), the “logarithmic value of ratio of IC40 values” in test [1] is reported as 0.12; in test [2] it was 0.18; in test [3], 0.48; in test [4], 0.18; in test [5] it was 0.20; in test [6] it was 0.16. Further, the “logarithmic value of ratio of IC40 values” in test [7] was determined as 0.00.
